Assays:
Test in all cases: relative viability (nuclei count vs DMSO), 5 days (fraction); higher = more cells survive
NCI-H1755 = system: NCI-H1755
How it was run: (§1)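 Medians of duplicate plates are given as relative viability. That measure is the nuclei count in treated wells divided by the count in vehicle wells. Counts were taken on 4× images of lung cancer cell lines in 1536-well plates, 5 days after pin-tool dosing the day after seeding with one drug alone or a fixed anchor-drug dose plus five library-drug doses (not always all listed) in √10 steps.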

NCI-H1915 = system: NCI-H1915
How it was run: as §1

NCI-H1975 = system: NCI-H1975
How it was run: as §1

NCI-H2023 = system: NCI-H2023
How it was run: as §1

NCI-H2085 = system: NCI-H2085
How it was run: as §1

NCI-H2126 = system: NCI-H2126
How it was run: as §1

NCI-H3122 = system: NCI-H3122
How it was run: as §1

NCI-H322M = system: NCI-H322M
How it was run: as §1

NCI-H358 = system: NCI-H358
How it was run: as §1

NCI-H441 = system: NCI-H441
How it was run: as §1

UMC-11 = system: UMC-11
How it was run: as §1

CC(=O)O[C@@]12CO[C@@H]1C[C@H](O)[C@@]1(C)C(=O)[C@H](O)C3=C(C)[C@@H](OC(=O)[C@H](O)[C@@H](NC(=O)OC(C)(C)C)c4ccccc4)C[C@@](O)([C@@H](OC(=O)c4ccccc4)[C@H]21)C3(C)C [Docetaxel] + CS(=O)(=O)N1CCN(Cc2cc3nc(-c4cccc5[nH]ncc45)nc(N4CCOCC4)c3s2)CC1 [Pictilisib] (partner 1 µM)
relative viability (NCI-H1755; first compound 0.000632 µM): 0.306
relative viability (NCI-H1755; first compound 0.002 µM): 0.264
relative viability (NCI-H1755; first compound 0.006325 µM): 0.249
relative viability (NCI-H1755; first compound 0.02 µM): 0.183
relative viability (NCI-H1915; first compound 0.0002 µM): 0.857
relative viability (NCI-H1915; first compound 0.000632 µM): 0.931
relative viability (NCI-H1915; first compound 0.002 µM): 0.275
relative viability (NCI-H1915; first compound 0.006325 µM): 0.257
relative viability (NCI-H1915; first compound 0.02 µM): 0.11
relative viability (NCI-H1975; first compound 0.0002 µM): 0.3
relative viability (NCI-H1975; first compound 0.000632 µM): 0.261
relative viability (NCI-H1975; first compound 0.002 µM): 0.213
relative viability (NCI-H1975; first compound 0.006325 µM): 0.156
relative viability (NCI-H1975; first compound 0.02 µM): 0.121
relative viability (NCI-H2023; first compound 0.0002 µM): 0.213
relative viability (NCI-H2023; first compound 0.000632 µM): 0.188
relative viability (NCI-H2023; first compound 0.002 µM): 0.142
relative viability (NCI-H2023; first compound 0.006325 µM): 0.11
relative viability (NCI-H2023; first compound 0.02 µM): 0.0766
relative viability (NCI-H2085; first compound 0.0002 µM): 0.532
relative viability (NCI-H2085; first compound 0.000632 µM): 0.467
relative viability (NCI-H2085; first compound 0.002 µM): 0.41
relative viability (NCI-H2085; first compound 0.006325 µM): 0.374
relative viability (NCI-H2085; first compound 0.02 µM): 0.237
relative viability (NCI-H2126; first compound 0.0002 µM): 0.518
relative viability (NCI-H2126; first compound 0.000632 µM): 0.541
relative viability (NCI-H2126; first compound 0.002 µM): 0.393
relative viability (NCI-H2126; first compound 0.006325 µM): 0.362
relative viability (NCI-H2126; first compound 0.02 µM): 0.257
relative viability (NCI-H3122; first compound 0.0002 µM): 0.567
relative viability (NCI-H3122; first compound 0.000632 µM): 0.577
relative viability (NCI-H3122; first compound 0.002 µM): 0.396
relative viability (NCI-H3122; first compound 0.006325 µM): 0.217
relative viability (NCI-H3122; first compound 0.02 µM): 0.172
relative viability (NCI-H322M; first compound 0.0002 µM): 0.433
relative viability (NCI-H322M; first compound 0.000632 µM): 0.493
relative viability (NCI-H322M; first compound 0.002 µM): 0.492
relative viability (NCI-H322M; first compound 0.006325 µM): 0.381
relative viability (NCI-H322M; first compound 0.02 µM): 0.313
relative viability (NCI-H358; first compound 0.0002 µM): 0.321
relative viability (NCI-H358; first compound 0.000632 µM): 0.34
relative viability (NCI-H358; first compound 0.002 µM): 0.283
relative viability (NCI-H358; first compound 0.02 µM): 0.157
relative viability (NCI-H441; first compound 0.0002 µM): 0.352
relative viability (NCI-H441; first compound 0.000632 µM): 0.32
relative viability (NCI-H441; first compound 0.002 µM): 0.198
relative viability (NCI-H441; first compound 0.006325 µM): 0.177
relative viability (NCI-H441; first compound 0.02 µM): 0.11
relative viability (UMC-11; first compound 0.0002 µM): 0.799
relative viability (UMC-11; first compound 0.000632 µM): 0.835
relative viability (UMC-11; first compound 0.002 µM): 0.245
relative viability (UMC-11; first compound 0.006325 µM): 0.226
relative viability (UMC-11; first compound 0.02 µM): 0.136
